Tests used:
CDK7 = biological target: T1, CDK7 (Homo sapiens, UniProt P50613); assay: CDK7 enzyme inhibition test; format: biochemical; details: Ki=IC50/(1+S/Km); 33P bound to MBP, [γ-33P]ATP, 30° C. for 20 minutes; read-out: Ki value of CDK7 inhibitory activity
T1 construct: purchased Carna Biosciences, Inc. 04-108
Procedure, shortened: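 Recombinant CDK7 with MBP substrate and [γ-33P]ATP (500 μM solution, diluted into the mix) in HEPES pH 7.4/DTT/Triton X-100/MgCl2, 20 min at 30 °C. TCA-precipitated 33P-MBP counted by scintillation; IC50 from inhibition, Ki = IC50/(1+S/Km).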

[1] = system: Human keratinocytes (NHEK-Neo Pooled); assay: Human keratinocyte growth inhibition assay; format: cell-based; details: 48 h, culture for 2 days, Cell Counting Kit-8
Description: Human Keratinocyte Growth Inhibition Assay
The measurement of a human keratinocyte growth inhibitory effect was carried out by modifying the method of Schafer et al. (British Journal of Pharmacology, 159, 842 (2011)).
Human keratinocytes (NHEK-Neo Pooled, manufactured by Lonza Group AG, Cat. No. 00192906) were cultured in KGM-Gold Bullet Kit (manufactured by Lonza Group AG, Cat. No. 00192060) and inoculated at 2.0×10^3 cells/well to a 96-well plate. After overnight culture in a carbon dioxide incubator, a test compound dissolved in DMSO (final DMSO concentration: 0.1%) was added and left standing in a carbon dioxide incubator. After culture for 2 days, the absorbance thereof was measured by using Cell Counting Kit-8 (343-07623 manufactured by Dojindo Laboratories)).
The rate of inhibition of cell growth at each concentration was calculated from the test compound concentration and the absorbance of Cell Counting Kit-8, and the concentration of the test compound necessary for inhibiting 50% of cell growth (IC50 value) was calculated by using EXSUS (version 8.0.0 or version 8.0.1, manufactured by CAC Exicare Corp.).

[2] = system: human large intestine cancer cell line (HCT-116); assay: Human large intestine cancer (HCT-116) cell growth inhibition test; format: cell-based; details: 72 h, HCT-116, culture for 3 days, sulforhodamine B absorbance
Procedure, shortened: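 HCT-116 cells seeded at 1.0×10^3 cells/well in McCoy's 5a with 10% FBS, then exposed to compound (0.1% DMSO final) for 3 days. Growth measured by sulforhodamine B absorbance; IC50 derived from concentration-inhibition data.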

[3] = system: IL-2 production in human peripheral blood mononuclear cell (PBMC); assay: Human PBMC CD3/CD28-induced IL-2 production inhibition test; format: cell-based; details: 48 h, CD3/CD28 stimulation, incubation for 2 days, ELISA
Text: Human Peripheral Blood Mononuclear Cell (PBMC) CD3/CD28-Induced IL-2 Production Inhibition Test
PBMC was separated and collected by using Ficoll-Paque (17-1440-02 manufactured by GE Healthcare Japan Corp.) from blood collected from healthy human adult in the presence of heparin. RPMI1640 medium (manufactured by GIBCO/Thermo Fisher Scientific, Inc., REF. 11875) containing 10% FBS (manufactured by GIBCO/Thermo Fisher Scientific, Inc. REF. 10082) and containing a test compound dissolved in DMSO and 2 μg/mL anti-hCD28 (manufactured by R&D Systems, Inc., Cat. No. MAB342) was added at 100 μL/well to T cell Activation Plate Anti-Human CD3 96-well plate (manufactured by Corning Inc., REF. 354725), and subsequently, a PBMC suspension adjusted such that the number of cells was 2×10^6 cells/mL was added at 100 μL/well (final DMSO concentration: 0.1%). A RPMI1640 medium containing 10% FBS and containing 0.1% DMSO and 2 μg/mL anti-hCD28 was similarly added to wells not supplemented with the test compound. After incubation for 2 days in a carbon dioxide incubator, the culture supernatant was collected. The collected culture supernatant was stored at −20° C. until IL-2 content measurement.
In the measurement of IL-2 content in the culture supernatant, a sandwich ELISA kit Quantikine Human IL-2 (manufactured by R&D Systems, Inc., Cat. No. S2050) was used. The IL-2 content of each sample was calculated from the calibration curve of Standard IL-2 included in the kit. When the amount of IL-2 produced by CD3/CD28 stimulation in the case of the addition of only DMSO was defined as 100%, the rate of inhibition of IL-2 production at each concentration of the test compound was calculated. A test compound concentration inhibiting 50% of IL-2 production was calculated as an IC50 value (nM) from the concentration of the added test compound and the rate of inhibition of IL-2 production by the test compound by using EXSUS (version 8.0.0 or version 8.0.1, manufactured by CAC Exicare Corp.).

[4] = system: mouse imiquimod-induced psoriasis model; assay: Ear thickening suppression test using mouse imiquimod-induced psoriasis model; format: in vivo; details: topical, 120 h, thickness measured on day 5, BALB/c mice, read-out: rate of inhibition of increase in right auricle thickness; for inhibition in vivo at 1 %: application of a 1% solution in methanol for 4 days
Description: Ear Thickening Suppression Test Using Mouse Imiquimod-Induced Psoriasis Model
An imiquimod-induced psoriasis model test was carried out by modifying the method of Leslie van der Fits et al. (J. Immunol. 182, 5836 (2009)). BALB/c mice were used (female, supplied by Charles River Laboratories Japan, Inc.) as laboratory animals. On the start day of the test, the thicknesses of the right auricles of the mice were measured with a thickness gauge (model SMD-565J manufactured by TECLOCK Corp.). A test compound solution or only a solvent was applied or orally administered, and after 60 minutes, 5 mg of imiquimod (Beselna Cream 5% manufactured by Mochida Pharmaceutical Co., Ltd.) was applied to the insides of the right auricles. The test compound solution or solvent administration and the imiquimod application were carried out for 4 days, and the thicknesses of the right auricles were measured again on day 5. When increase in the thicknesses of the right auricles of the solvent-administered group on day 5 was defined as 100%, the rate of inhibition of increase (%) at each dose of the test compound was calculated.

T1 sequence (P50613 whole entry): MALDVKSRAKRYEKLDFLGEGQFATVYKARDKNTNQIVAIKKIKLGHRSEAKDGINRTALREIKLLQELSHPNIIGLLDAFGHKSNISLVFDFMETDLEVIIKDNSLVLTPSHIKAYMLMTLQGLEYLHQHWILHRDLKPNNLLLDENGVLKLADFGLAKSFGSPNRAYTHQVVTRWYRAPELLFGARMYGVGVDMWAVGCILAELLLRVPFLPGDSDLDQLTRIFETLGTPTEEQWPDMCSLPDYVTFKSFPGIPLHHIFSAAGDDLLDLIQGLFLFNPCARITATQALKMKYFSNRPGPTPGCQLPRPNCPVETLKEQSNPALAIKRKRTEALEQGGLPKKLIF
T1 sequence (P51946 whole entry partner): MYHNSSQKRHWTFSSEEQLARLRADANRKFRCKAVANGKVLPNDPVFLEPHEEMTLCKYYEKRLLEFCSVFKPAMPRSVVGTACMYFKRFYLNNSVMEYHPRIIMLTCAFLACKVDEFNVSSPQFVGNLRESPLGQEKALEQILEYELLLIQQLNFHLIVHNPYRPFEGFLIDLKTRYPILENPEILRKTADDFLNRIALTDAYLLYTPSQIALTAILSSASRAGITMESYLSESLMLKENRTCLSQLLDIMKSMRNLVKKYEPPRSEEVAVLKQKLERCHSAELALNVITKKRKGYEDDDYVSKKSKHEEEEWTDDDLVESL
T1 sequence (P51948 whole entry partner): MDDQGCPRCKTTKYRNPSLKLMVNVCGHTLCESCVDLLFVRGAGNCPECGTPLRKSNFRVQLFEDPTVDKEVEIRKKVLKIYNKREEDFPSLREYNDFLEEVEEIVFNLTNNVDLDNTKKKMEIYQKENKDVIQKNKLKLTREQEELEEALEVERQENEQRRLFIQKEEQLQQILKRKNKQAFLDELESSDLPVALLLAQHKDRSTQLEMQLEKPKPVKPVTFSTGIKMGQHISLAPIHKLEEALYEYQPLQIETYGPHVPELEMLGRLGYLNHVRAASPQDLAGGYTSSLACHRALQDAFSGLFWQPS

SMILES	Ki (CDK7)	IC50 [1]	IC50 [2]	IC50 [3]	inhibition in vivo at 0.01 % ([4]; application of a 0.01% methanol solution for 4 days)	inhibition in vivo at 1 % [4]
CC1(C)c2[nH]nc(NC(=O)C3([Si](C)(C)C)CCC3)c2CN1C(=O)NC(C#CCO)c1ccccc1 (racemic) [IV-378, N-(4-Hydroxy-1-phenyl-2-butyn-1-yl)-6,6-dimethyl-3-[1-(trimethylsilyl)cyclobutanecarboxamido]-4,6-dihydropyrrolo[3,4-c]pyrazole-5(1H)-carboxamide]	≤ 50 nM	≤ 500 nM	≤ 500 nM	–	–	–
CC(C)(O)[C@@H](NC(=O)N1Cc2c(NC(=O)C3([Si](C)(C)C)CC3)n[nH]c2C1(C)C)c1ccccc1 [III-170, (S)—N-(2-Hydroxy-2-methyl-1-phenylpropyl)-6,6-dimethyl-3-[1-(trimethylsilyl)cyclopropanecarboxamido]-4,6-dihydropyrrolo[3,4-c]pyrazole-5(1H)-carboxamide]	≤ 50 nM	≤ 500 nM	≤ 500 nM	≤ 50 nM	–	–
CC1(C)c2[nH]nc(NC(=O)C3([Si](C)(C)C)CC3)c2CN1C(=O)N[C@H](CCO)c1ccccc1 [III-226, (R)—N-(3-Hydroxy-1-phenylpropyl)-6,6-dimethyl-3-[1-(trimethylsilyl)cyclopropanecarboxamido]-4,6-dihydropyrrolo[3,4-c]pyrazole-5(1H)-carboxamide]	≤ 50 nM	≤ 500 nM	≤ 500 nM	≤ 50 nM	–	–
CO[C@@H](C(=O)N1Cc2c(NC(=O)C3([Si](C)(C)C)CC3)n[nH]c2C1(C)C)c1ccccc1 [III-1059, (R)—N-[5-(2-Methoxy-2-phenylacetyl)-6,6-dimethyl-1,4,5,6-tetrahydropyrrolo[3,4-c]pyrazol-3-yl]-1-(trimethylsilyl)cyclopropanecarboxamide]	≤ 50 nM	≤ 500 nM	≤ 500 nM	–	≥ 50%	–
CC1(C)c2[nH]nc(NC(=O)C3([Si](C)(C)C)CCC3)c2CN1C(=O)N[C@H](COC(F)F)c1ccccc1 [IV-131, (S)—N-[2-(Difluoromethoxy)-1-phenylethyl]-6,6-dimethyl-3-[1-(trimethylsilyl)cyclobutanecarboxamido]-4,6-dihydropyrrolo[3,4-c]pyrazole-5(1H)-carboxamide]	–	≤ 500 nM	≤ 500 nM	–	–	–
CC1(C)c2[nH]nc(NC(=O)C3([Si](C)(C)C)CCC3)c2CN1C(=O)NC(CO)c1ccccc1F (stereo not drawn) [IV-510, N-[1-(2-Fluorophenyl)-2-hydroxyethyl]-6,6-dimethyl-3-[1-(trimethylsilyl)cyclobutanecarboxamido]-4,6-dihydropyrrolo[3,4-c]pyrazole-5(1H)-carboxamide]	≤ 50 nM	–	≤ 500 nM	≤ 50 nM	–	–
CC1(C)c2[nH]nc(NC(=O)C3([Si](C)(C)C)CCC3)c2CN1C(=O)N[C@H](CO)c1cccc(F)c1 [IV-519, (S)—N-[1-(3-Fluorophenyl)-2-hydroxyethyl]-6,6-dimethyl-3-[1-(trimethylsilyl)cyclobutanecarboxamido]-4,6-dihydropyrrolo[3,4-c]pyrazole-5(1H)-carboxamide]	≤ 50 nM	≤ 500 nM	≤ 500 nM	≤ 50 nM	–	–
CC1(C)c2[nH]nc(NC(=O)C3([Si](C)(C)C)CCC3)c2CN1C(=O)N[C@H](CO)c1ccc(F)cc1 [IV-527, (S)—N-[1-(4-Fluorophenyl)-2-hydroxyethyl]-6,6-dimethyl-3-[1-(trimethylsilyl)cyclobutanecarboxamido]-4,6-dihydropyrrolo[3,4-c]pyrazole-5(1H)-carboxamide]	≤ 50 nM	≤ 500 nM	≤ 500 nM	≤ 50 nM	–	–
CC(OC1CCCCC1)C(=O)N1Cc2c(NC(=O)C3([Si](C)(C)C)CCC3)n[nH]c2C1(C)C (stereo not drawn) [IV-1255, N-{5-[2-(Cyclohexyloxy)propanoyl]-6,6-dimethyl-1,4,5,6-tetrahydropyrrolo[3,4-c]pyrazol-3-yl}-1-(trimethylsilyl)cyclobutanecarboxamide]	≤ 50 nM	–	≤ 500 nM	≤ 50 nM	–	–
CCCCCCCC(=O)OC[C@@H](NC(=O)N1Cc2c(NC(=O)C3([Si](C)(C)C)CCC3)n[nH]c2C1(C)C)c1ccccc1 [V-1470, (S)-2-{6,6-Dimethyl-3-[1-(trimethylsilyl)cyclobutanecarboxamido]-1,4,5,6-tetrahydropyrrolo[3,4-c]pyrazole-5-carboxamido}-2-phenylethyl octanoate]	–	–	–	–	–	≥ 50%
CCCCCCCCCCCC(=O)OC[C@@H](NC(=O)N1Cc2c(NC(=O)C3([Si](C)(C)C)CCC3)n[nH]c2C1(C)C)c1ccccc1 [V-1474, (S)-2-{6,6-Dimethyl-3-[1-(trimethylsilyl)cyclobutanecarboxamido]-1,4,5,6-tetrahydropyrrolo[3,4-c]pyrazole-5-carboxamido}-2-phenylethyl dodecanoate]	–	–	–	–	–	≥ 50%
